According to patent US12385839B2, “Use of protein in predicting drug properties” (priority 2021, dated 2025):
Read-outs that look alike come from different tables or passages of the source.

Assays:
[1] = biological target: T1, human serum albumin (HSA) (Homo sapiens, UniProt P02768); test: Fluorescence emission spectrum (quenching) of HSA with carbamate pesticides; format: binding; conditions: for Ksv (37°) / ΔG(37°) / Binding distance/r / Number of binding sites/n: modelling table; for Kq / Ksv / n (number of binding sites) / Kd: pH 7.4; for R (binding distance): Förster energy transfer; for fluorescence of HSA quenched by pesticide: titration of pesticide; for ΔH^0 / ΔS^0: Van't Hoff, 296-310 K
T1 sequence (P02768 25-609): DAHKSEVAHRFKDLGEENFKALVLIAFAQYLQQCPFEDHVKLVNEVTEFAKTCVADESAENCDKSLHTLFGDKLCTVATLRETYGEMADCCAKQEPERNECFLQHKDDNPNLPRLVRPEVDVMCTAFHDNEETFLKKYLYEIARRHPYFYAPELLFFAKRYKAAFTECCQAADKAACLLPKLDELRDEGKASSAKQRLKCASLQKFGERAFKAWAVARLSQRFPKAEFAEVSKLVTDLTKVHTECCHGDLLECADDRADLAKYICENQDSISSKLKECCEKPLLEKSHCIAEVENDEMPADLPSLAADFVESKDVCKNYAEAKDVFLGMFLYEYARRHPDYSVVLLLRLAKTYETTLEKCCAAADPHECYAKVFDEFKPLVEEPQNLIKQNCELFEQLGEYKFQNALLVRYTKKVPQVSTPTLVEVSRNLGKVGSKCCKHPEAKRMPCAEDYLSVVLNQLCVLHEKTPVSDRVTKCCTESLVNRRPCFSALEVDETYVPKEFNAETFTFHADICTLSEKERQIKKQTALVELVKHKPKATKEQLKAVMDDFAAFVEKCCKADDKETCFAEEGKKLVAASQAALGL
Protocol: the mixed solution to be tested was preheated at […] for 3 minutes, and the emission spectrum of HSA with carbamate pesticides was measured at 300-500 nm . The excitation wavelength was set at 280 nm , and the slit width for both excitation and emission was 15 nm; the HSA concentration was kept constant at 5×10^−7 M, and the pesticide concentration was (0-105)×10^−7 M.
The internal filtering effect of fluorescence signal was corrected according to the following formula: Fcor=Fobsexp[(Aex+Aem)/2] (1);
in this formula, Fcor and Fobs represent corrected fluorescence signal and observed fluorescence signal, respectively, and Aex and Aem represent absorbance of the mixed solution to be tested at excitation wavelength and emission wavelengths, respectively; the quenching constant, number of binding sites, binding constant, free energy and binding distance of different drugs were obtained by fluorescence emission spectra, and a BP neural network model was obtained. Specifically, they were obtained as follows:
There is a linear relationship between F0/F and [Q] to distinguish whether it is static quenching or dynamic quenching. The fluorescence quenching data are analyzed by Stern-Volmer equation to clarify the quenching mechanism: F0/F=1+KSV[Q]=1+Kqτ0[Q] (2);
in the formula, F0 and F are fluorescence signals […] quencher, respectively. Ksv is Stern-Volmer quenching constant; Kq is a quenching rate constant of biomolecules; τ0 is the average lifetime of biomolecules without quencher (about 10^−8 s); [Q] is the concentration of quencher.
The maximum dynamic quenching rate constant of all kinds of quenchers on polymers was 2.0×10^10 L·mol^−1·s^−1. Static quenching and dynamic quenching could be judged according to this value. If K^q was greater than 2.0×10^10 L·mol^−1·s^−1, it belonged to static quenching. Otherwise, it belonged to dynamic quenching.
In this part, the binding sites and binding constants between carbamate pesticides and HSA were calculated. The following formula was used to calculate the number of binding sites (n) and the binding constant (Ka) of carbamate pesticides and HSA: log[(F0−F)/F]=log Ka+nlog[Q] (3);
The interactions between biological molecules and drug molecules were weak intermolecular interactions, including hydrogen bonds, van der Waals forces, electrostatic forces and hydrophobic interactions. By using Van't Hoff equation, the thermodynamic constants of drug-protein interaction were obtained, and the main types of drug-protein interaction were judged according to the changes of binding constants under different conditions. LnK=−ΔH^0/RT+ΔS^0/R (4); ΔG^0=ΔH^0−TΔS^0 (5);
There is a relationship among energy transfer efficiency E, distance r between energy donor and energy receptor and energy transfer distance R0. E=1−F/F0=R0^6/(R0^6+r^6) (6);
E represents the transfer efficiency between donor and receptor, r is the average distance between donor and receptor, and R0 is the critical distance when the transfer efficiency is 50%. R0^6=8.79×10^−K^2N^−4φJ (7)
K^2 is the orientation related to the geometry of donor and receptor of dipole. For random orientation in fluid, K^2=2/3; N is the average refractive index of the medium in the wavelength range with obvious spectral overlap, and the refractive index of water and organic matter is 1.336; φ is the quantum yield of donor, and the quantum yield of tryptophan in HSA is about 0.118; J represents the influence of spectral overlap between the emission spectrum of the donor and the absorption spectrum of the receptor, and can be calculated by the following formula: j=ΣF(λ)ϵ(λ)λ^4Δλ/ΣF(λ) Δλ (8);
F(λ) is the corrected fluorescence signal of the donor in the wavelength range from λ to (λ+Δλ), while ϵ(λ) is the extinction coefficient of the receptor at λ.

[2] = biological target: T1, human serum albumin (HSA); test: Circular dichroism spectrum, secondary structure (α-helix content) of HSA; conditions: HSA 2×10^−6 M
Protocol: the mixed solution to be tested was preheated at […] for 2-5 minutes, and the CD spectrum of HSA was recorded in the wavelength range of 200-500 nm . The concentration of HSA was kept at 2×10^−6 M, and the pesticide was (0-20)×10^−6 m. Firstly, HSA was measured, and then the ratio of HSA to pesticides needed to be determined specifically, which was preliminarily determined according to the ratio of 1:1, 1:2 and 1:3.
According to the following equation, the result of CD spectrum was usually expressed as the mean residue ellipticity (MRE), and the unit was deg·cm^2·dmol^−1. MRE=ObservedCD(mdeg)/(10Cpnl) (9);
in which Cp is the molar concentration of protein, n is the number (585) of amino acid residues, and 1 is the path length (1 mm). The α helicity of free and bound HSA is calculated from MRE values using the following formula: α−Helix(%)=[(−MRE208−4000)×100]/(33000-4000) (10)
in which the MRE208 is the MRE value observed at 208 nm , 4000 is the MRE value of random coil conformation at 208 nm , and […] is the MRE value of pure α helix at 208 nm .

[3] = cited from earlier work; for LD50: modelling table; for Toxicity: toxicity grade by LD50, trailing figure = number of pesticides in group

SMILES | Ksv (37°) [1] | ΔG(37°) [1] | ΔG^0 ([1]; 296 K) | Kq ([1]; 296 K) | Ksv ([1]; 296 K) | n (number of binding sites) ([1]; 296 K) | ΔG^0 ([1]; 303 K) | Kq ([1]; 303 K) | Ksv ([1]; 303 K) | n (number of binding sites) ([1]; 303 K) | ΔG^0 ([1]; 310 K) | R (binding distance) ([1]; 310 K) | Kq ([1]; 310 K) | Ksv ([1]; 310 K) | n (number of binding sites) ([1]; 310 K) | fluorescence of HSA quenched by pesticide ([1]; 310 K) | ΔH^0 [1] | ΔS^0 [1] | Binding distance/r [1] | Number of binding sites/n [1] | other results
CNC(=O)O/N=C(\C)C(C)S(C)(=O)=O (stereo not drawn) [Butoxycarboxim, butoxycarboxim] | 62644.83638 | −20.24 | -3.7366 kcal/mol | 2.888 ± 0.064 10^12 M^−1s^−1 | 2.888 ± 0.064 10^4 M^−1 | 0.658 ± 0.002 | -4.2875 kcal/mol | 4.798 ± 0.112 10^12 M^−1s^−1 | 4.798 ± 0.112 10^4 M^−1 | 0.679 ± 0.002 | -4.8384 kcal/mol | 1.964 nm | 6.264 ± 0.074 10^12 M^−1s^−1 | 6.264 ± 0.074 10^4 M^−1 | 0.725 ± 0.001 | quenched | 19.556 kcal/mol | 329.251 J · mol^−1 · K^−1 | 1.964 | 0.725 | Kd ([1]; 296 K, read-out: Ka (binding constant)): 1720 µM; Kd ([1]; 303 K, read-out: Ka (binding constant)): 832 µM; Kd ([1]; 310 K, read-out: Ka (binding constant)): 382 µM; α-helix contents ([2]; 5:1 (Pesticide:HSA)): 53.753%; α-helix contents ([2]; 10:1 (Pesticide:HSA)): 52.790%; LD50 [3]: 458 mg/kg; Toxicity [3]: Moderately
CNC(=O)Oc1cccc2c1OC(C)(C)C2 [Carbofuran, carbofuran] | 87696.31575 | −25.15 | -5.0459 kcal/mol | 5.563 ± 0.123 10^12 M^−1s^−1 | 5.563 ± 0.123 10^4 M^−1 | 0.797 ± 0.002 | -5.5287 kcal/mol | 7.239 ± 0.082 10^12 M^−1s^−1 | 7.239 ± 0.082 10^4 M^−1 | 0.822 ± 0.002 | -6.0117 kcal/mol | 1.938 nm | 8.770 ± 0.088 10^12 M^−1s^−1 | 8.770 ± 0.088 10^4 M^−1 | 0.862 ± 0.002 | quenched | 15.374 kcal/mol | 288.639 J · mol^−1 · K^−1 | 1.938 | 0.8616 | Kd ([1]; Ka (binding constant), 296 K): 185 µM; Kd ([1]; Ka (binding constant), 303 K): 107 µM; Kd ([1]; Ka (binding constant), 310 K): 56.7 µM; α-helix contents ([2]; 5:1 (Pesticide:HSA)): 51.483%; α-helix contents ([2]; 10:1 (Pesticide:HSA)): 48.304%; LD50 [3]: 5 mg/kg; Toxicity [3]: Highly
CCSCc1ccccc1OC(=O)NC [Ethiofencarb, ethiofencarb] | 41346.56830 | −17.7 | -3.4355 kcal/mol | 2.562 ± 0.137 10^12 M^−1s^−1 | 2.562 ± 0.137 10^4 M^−1 | 0.613 ± 0.003 | -3.8329 kcal/mol | 3.301 ± 0.074 10^12 M^−1s^−1 | 3.301 ± 0.074 10^4 M^−1 | 0.645 ± 0.009 | -4.2302 kcal/mol | 2.363 nm | 4.135 ± 0.166 10^12 M^−1s^−1 | 4.135 ± 0.166 10^4 M^−1 | 0.674 ± 0.002 | quenched | 13.365 kcal/mol | 237.483 J · mol^−1 · K^−1 | 2.363 | 0.6742 | Kd ([1]; Ka (binding constant), 296 K): 2920 µM; Kd ([1]; Ka (binding constant), 303 K): 1710 µM; Kd ([1]; Ka (binding constant), 310 K): 1050 µM; α-helix contents ([2]; 5:1 (Pesticide:HSA)): 49.087%; α-helix contents ([2]; 10:1 (Pesticide:HSA)): 48.340%; LD50 [3]: 200 mg/kg; Toxicity [3]: Moderately
CNC(=O)Oc1ccccc1C(C)C [Isoprocarb, isoprocarb] | 30154.52708 | −18.11 | -3.6472 kcal/mol | 2.175 ± 0.070 10^12 M^−1s^−1 | 2.175 ± 0.070 10^4 M^−1 | 0.669 ± 0.004 | -3.9873 kcal/mol | 2.758 ± 0.048 10^12 M^−1s^−1 | 2.758 ± 0.048 10^4 M^−1 | 0.689 ± 0.004 | -4.3274 kcal/mol | 2.338 nm | 3.015 ± 0.043 10^12 M^−1s^−1 | 3.015 ± 0.043 10^4 M^−1 | 0.712 ± 0.009 | quenched | 10.734 kcal/mol | 203.281 J · mol^−1 · K^−1 | 2.338 | 0.7116 | Kd ([1]; Ka (binding constant), 296 K): 2050 µM; Kd ([1]; Ka (binding constant), 303 K): 1300 µM; Kd ([1]; Ka (binding constant), 310 K): 900 µM; α-helix contents ([2]; 5:1 (Pesticide:HSA)): 50.878%; α-helix contents ([2]; 10:1 (Pesticide:HSA)): 49.242%; LD50 [3]: 450 mg/kg; Toxicity [3]: Moderately
